# Assay results taken from patent publication US12263171B2, “7-, 8-, and 10-substituted amino triazolo quinazoline derivatives as adenosine receptor antagonists, pharmaceutical compositions and their use” (Merck Sharp & Dohme LLC, priority 2018, dated 2025).
# Assays:
# [1] = target: human A2a adenosine receptor (Homo sapiens (Human), UniProt P29274); assay: A2a receptor affinity radioligand binding assay ([3H] SCH58261, membranes from HEK293 or CHO cells); settings: for IC50: unstarred values: radioligand binding
# Sequence of human A2a adenosine receptor (P29274 whole entry): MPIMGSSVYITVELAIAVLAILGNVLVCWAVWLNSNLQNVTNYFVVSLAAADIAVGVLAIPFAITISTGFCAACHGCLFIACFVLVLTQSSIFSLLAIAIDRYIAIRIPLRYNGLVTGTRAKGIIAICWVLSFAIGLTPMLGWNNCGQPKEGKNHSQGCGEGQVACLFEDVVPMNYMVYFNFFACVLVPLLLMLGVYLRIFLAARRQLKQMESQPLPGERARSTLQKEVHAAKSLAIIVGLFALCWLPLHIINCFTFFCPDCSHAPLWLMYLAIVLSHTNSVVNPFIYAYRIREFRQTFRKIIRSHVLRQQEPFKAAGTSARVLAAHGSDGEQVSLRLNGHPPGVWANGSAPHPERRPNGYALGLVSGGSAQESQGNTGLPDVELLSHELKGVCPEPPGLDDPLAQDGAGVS
# Description: The A2a receptor affinity binding assay measured the amount of binding of a tritiated ligand with high affinity for the A2a adenosine receptor to membranes made from HEK293 or CHO cells recombinantly expressing the human A2a adenosine receptor, in the presence of varying concentrations of a compound of the invention.
# Measurement of A2a Binding Affinity Using Radioligand Binding
# 148 μL, (5 μg/mL) membranes (Perkin Elmer, Cat. No. RBHA2aM4001A) and 2 μL compounds of the invention to be tested (test compound) were transferred to individual wells of a 96-well polypropylene assay plate and incubated for 15 to 30 minutes at room temperature. [^3H] SCH58261 ((7-(2-phenylethyl)-5-amino-2-(2-furyl)-pyrazolo-[4,3-e]-1,2,4-triazolo[1,5-c]pyrimidine)) was diluted in assay buffer (50 mM Tris pH 7.4, 10 mM MgCl2, 0.005% Tween20) to a concentration of 4 nM and 50 μL transferred to each well of the assay plate. […] The assay plate was incubated at room temperature for 60 minutes with agitation. […] Filtering was achieved by aspirating the contents of the assay plate for 5 seconds, then washing and aspirating the contents three times with ice-cooled wash buffer (50 mM Tris-HCl pH 7.4, 150 mM NaCl) and allowing the vacuum manifold to dry the plate for 30 seconds. The filter plate was incubated for at least 1 hour at 55° C. and allowed to dry. The bottom of the filter plate was sealed with backing tape. 40 μL. […] The plate was incubated for at least 20 minutes, and then the amount of radioactivity remaining in each well was determined using a TopCown® (Perkin Elmer) scintillation counter. After normalization to total and non-specific binding, the percent effect at each compound concentration was calculated. The plot of percent effect versus the log of compound concentration was analyzed electronically using a 4-parameter logistic fit based on the Levenberg-Marquardt algorithm to generate IC50 values.
# [2] = target: human A2b adenosine receptor (Homo sapiens (Human), UniProt P29275); assay: A2b radioligand filtration binding assay (tritiated proprietary A2b antagonist, HEK293 membranes); settings: for IC50: unstarred values: radioligand binding
# Sequence of human A2b adenosine receptor (P29275 whole entry): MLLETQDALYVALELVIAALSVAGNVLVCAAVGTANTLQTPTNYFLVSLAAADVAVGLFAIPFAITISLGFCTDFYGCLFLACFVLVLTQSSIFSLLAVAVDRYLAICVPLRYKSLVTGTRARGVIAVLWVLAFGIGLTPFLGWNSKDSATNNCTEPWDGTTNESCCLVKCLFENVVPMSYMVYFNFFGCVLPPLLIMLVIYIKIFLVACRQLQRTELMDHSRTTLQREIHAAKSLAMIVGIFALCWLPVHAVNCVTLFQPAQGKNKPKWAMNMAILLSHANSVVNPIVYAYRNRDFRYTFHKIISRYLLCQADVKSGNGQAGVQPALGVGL
# Description: Measurement of A2b Binding Affinity
# The reported affinity of the compounds of the invention for the human A2b adenosine receptor was determined experimentally using a radioligand filtration binding assay. This assay measures the amount of binding of a tritiated proprietary A2b receptor antagonist, in the presence and absence of a compound of the invention, to membranes made from HEK293 cells recombinantly expressing the human A2b adenosine receptor (Perkin Elmer, Cat. No. ES-013-C).
# The filter plate was incubated for at least 1 hour at 55° C. and allowed to dry. The bottom of the filter plate was then sealed with backing tape. […] The plates were then incubated for at least 20 minutes, and then the amount of radioactivity remaining in each well was determined using a TopCount® (Perkin Elmer) scintillation counter. After normalization to total and non-specific binding, the percent effect at each compound concentration was calculated. The plot of percent effect versus the log of compound concentration was analyzed electronically using a 4-parameter logistic fit based on the Levenberg-Marquardt algorithm to generate IC50 values.
IC50 [1] [nM],IC50 [2] [nM],"A2A binding % inh. @ 10000 nM ([1]; @ 10000 nM, unstarred) [% inh @ 10000 nM % inh.]","A2B binding % inh. @ 10000 nM ([2]; @ 10000 nM, unstarred) [% inh. @ 10000 nM]",SMILES
34.9,956,,,"Cc1cccc2c1nc(N)n1nc(C3CCCN(c4cnn(C)c4)C3)nc21 (single isomer, unassigned) [Example 171, (R or S)-7-methyl-2-(1-(1-methyl-1H-pyrazol-4-yl)piperidin-3-yl)-[1,2,4]triazolo[1,5-c]quinazolin-5-amine]"
34.2,375,,,"Cn1cc(N2CCCC(c3nc4c5c(F)ccc(F)c5nc(N)n4n3)C2)cn1 (single isomer, unassigned) [Example 172, (R or S)-7,10-difluoro-2-(1-(1-methyl-1H-pyrazol-4-yl)piperidin-3-yl)-[1,2,4]triazolo[1,5-c]quinazolin-5-amine]"
3.6,403,,,"COc1c(Cl)ccc2c1nc(N)n1nc(C3CCCN(c4cnn(C)c4)C3)nc21 (single isomer, unassigned) [Example 173, (R or S)-8-chloro-7-methoxy-2-(1-(1-methyl-1H-pyrazol-4-yl)piperidin-3-yl)-[1,2,4]triazolo[1,5-c]quinazolin-5-amine]"
44.3,480,,,"Cn1cc(N2CCCC(c3nc4c5ccc(C(F)(F)F)cc5nc(N)n4n3)C2)cn1 (single isomer, unassigned) [Example 174, (R or S)-2-(1-(1-methyl-1H-pyrazol-4-yl)piperidin-3-yl)-8-(trifluoromethyl)-[1,2,4]triazolo[1,5-c]quinazolin-5-amine]"
0.8,84.9,,,"COc1ccc2c(c1)nc(N)n1nc([C@@H]3C[C@H](C)CN(c4cnn(CC(C)(C)O)c4)C3)nc21 (single isomer, unassigned) [Example 195D]"
0.4,8.4,,,"C[C@H]1CC[C@@H](c2nc3c4ccc(Br)cc4nc(N)n3n2)CN1c1cnn(CC(C)(C)O)c1 (single isomer, unassigned) [Example 198, 1-(4-((2S,5R or 2R,5S)-5-(5-amino-8-bromo-[1,2,4]triazolo[1,5-c]quinazolin-2-yl)-2-methylpiperidin-1-yl)-4H-pyrazol-1-yl)-2-methylpropan-2-ol]"
22.5,257,,,"Cc1ccc2c(c1)nc(N)n1nc(C3CCCN(c4cnn(C)c4)C3)nc21 (single isomer, unassigned) [Example 199, (R or S)-8-methyl-2-(1-(1-methyl-1H-pyrazol-4-yl)piperidin-3-yl)-[1,2,4]triazolo[1,5-c]quinazolin-5-amine]"
11.8,152,,,"Cn1cc(N2CCCC(c3nc4c5ccc(Cl)cc5nc(N)n4n3)C2)cn1 (single isomer, unassigned) [Example 200, (R or S)-8-chloro-2-(1-(1-methyl-1H-pyrazol-4-yl)piperidin-3-yl)-[1,2,4]triazolo[1,5-c]quinazolin-5-amine]"
0.4,5.5,,,"C[C@H]1CC[C@@H](c2nc3c4ccc(C5CC5)cc4nc(N)n3n2)CN1c1cnn(CC(C)(C)O)c1 (single isomer, unassigned) [Example 205, 1-(4-((2S, 5R or 2R,5S)-5-(5-amino-8-cyclopropyl-[1,2,4]triazolo[1,5-c]quinazolin-2-yl)-2-methylpiperidin-1-yl)-1H-pyrazol-1-yl)-2-methylpropan-2-ol]"
0.3,20.7,,,"Cc1ccc2c(c1)nc(N)n1nc([C@@H]3CC[C@H](C)N(c4cnn(CC(C)(C)O)c4)C3)nc21 (single isomer, unassigned) [Example 206, 1-(4-((2S, 5R or 2R,5S)-5-5-amino-8-methyl-[1,2,4]triazolo[1,5-c]quinazolin-2-yl)-2-methylpiperidin-1-yl)-1H-pyrazol-1-yl)-2-methylpropan-2-ol]"
,,10,5,"C[C@H]1CC[C@@H](c2nc3c4ccc(C5CNC5)cc4nc(N)n3n2)CN1c1cnn(CC(C)(C)O)c1 (single isomer, unassigned) [Example 208, 1-(4-((2S,5R or 2R,5S)-5-(5-amino-8-(azetidin-3-yl)-[1,2,4]triazolo[1,5-c]quinazolin-2-yl)-2-methylpiperidin-1-yl)-1H-pyrazol-1-yl)-2-methylpropan-2-ol]"
0.1,3.2,,,"COc1ccc2c(c1)nc(N)n1nc([C@@H]3CC[C@H](C)N(c4cnn(C5CCC[C@@H]5O)c4)C3)nc21 (single isomer, unassigned) [Example 210B]"
0.7,1,,,"COc1cccc2c1nc(N)n1nc([C@@H]3CCCN(c4cnn(CC(F)(F)F)c4)C3)nc21 [Example 9, (R)-7-methoxy-2-(1-(1-(2,2,2-trifluoroethyl)-1H-pyrazol-4-yl)piperidin-3-yl)-[1,2,4]triazolo[1,5-c]quinazolin-5-amine]"
1,24.7,,,"COc1cccc2c1nc(N)n1nc([C@@H]3CCCN(c4cnn(C)c4)C3)nc21 [Example 17, (R)-7-methoxy-2-(1-(1-methyl-1H-pyrazol-4-yl)piperidin-3-yl)-[1,2,4]triazolo[1,5-c]quinazolin-5-amine]"
0.5,45.1,,,"COc1cccc2c1nc(N)n1nc([C@@H]3CCCN(c4cnn(C5(C)CC5)c4)C3)nc21 [Example 20, (R)-7-methoxy-2-(1-(1-(1-methylcyclopropyl)-1H-pyrazol-4-yl)piperidin-3-yl)-[1,2,4]triazolo[1,5-c]quinazolin-5-amine]"
0.6,111,,,"COc1cccc2c1nc(N)n1nc([C@@H]3CCCN(c4cnn(C5CCOCC5)c4)C3)nc21 [Example 21, (R)-7-methoxy-2-(1-(1-(tetrahydro-2H-pyran-4-yl)-1H-pyrazol-4-yl)piperidin-3-yl)-[1,2,4]triazolo[1,5-c]quinazolin-5-amine]"
1,64.2,,,"COc1cccc2c1nc(N)n1nc([C@@H]3CCCN(c4cnn(CC5(O)CCC5)c4)C3)nc21 [Example 23, (R)-1-((4-(3-(5-amino-7-methoxy-[1,2,4]-triazolo[1,5-c]quinazolin-2-yl)piperidin-1-yl)-1H-pyrazol-1-yl)methyl)cyclobutan-1-ol]"
2.9,6.9,,,"COc1cccc2c1nc(N)n1nc([C@@H]3CCCN(c4cnn([C@H]5CCCC[C@H]5O)c4)C3)nc21 [Example 24, (1R,2S)-2-(4-((R)-3-(5-amino-7-methoxy-[1,2,4]triazolo[1,5-c]quinazolin-2-yl)piperidin-1-yl)-1H-pyrazol-1-yl)cyclohexan-1-ol]"
2.3,5.7,,,COc1cccc2c1nc(N)n1nc([C@@H]3CCCN(c4cnn([C@@H]5CCCC[C@@H]5O)c4)C3)nc21 [Example 25]
3.5,2,,,"CNC(=O)C(C)(C)n1cc(N2CCC[C@@H](c3nc4c5cccc(OC)c5nc(N)n4n3)C2)cn1 [Example 26, (R)-2-(4-(3-(5-annino-7-methoxy-[1,2,4]triazolo[1,5-c]quinazolin-2-yl)piperidin-1-yl)-1H-pyrazol-1-yl)-N,2-dimethylpropanamide]"
0.4,103,,,"COc1cccc2c1nc(N)n1nc([C@@H]3CCCN(c4cn(CC(C)(C)O)nc4C)C3)nc21 [Example 30, (R)-1-(4-(3-(5-amino-7-methoxy-[1,2,4]triazolo[1,5-c]quinazolin-2-yl)piperidin-1-yl)-3-methyl-1H-pyrazol-1-yl)-2-methylpropan-2-ol]"
1.1,0.7,,,"COc1cccc2c1nc(N)n1nc([C@@H]3CCCN(c4cn(CC5(O)CCC5)nc4C)C3)nc21 [Example 32, (R)-1-((4-(3-(5-amino-7-methoxy-[1,2,4]triazolo[1,5-c]quinazolin-2-yl)piperidin-1-yl)-3-methyl-1H-pyrazol-1-yl)methyl)cyclobutan-1-ol]"
0.1,320,,,"COc1cccc2c1nc(N)n1nc([C@@H]3CCCN(c4cnn(CC(C)(C)O)c4C)C3)nc21 [Example 33, (R)-1-(4-(3-(5-amino-7-methoxy-[1,2,4]triazolo[1,5-c]quinazolin-2-yl)piperidin-1-yl)-5-methyl-1H-pyrazol-1-yl)-2-methylpropan-2-ol]"
